Data published in patent US20250381243A1, “HETEROCYCLES AND USES THEREOF” (Kumquat Biosciences Inc., priority 2022, published 2025).
Read-outs that look alike come from different tables or passages of the source.

Tested on: A549 cells
Experiment: Cell proliferation assay (CellTiter-Glo), cells with K-Ras G12S mutation
Assay type: cell-based
Details: Homo sapiens, read-out: Inhibition of A549 Cells (IC50)
Procedure: A549 (ATCC CRL-185) and LS123 (ATCC CRL-255) cell lines comprise a G12S mutation and can be used to assess Ras cellular signaling in vitro, e.g., in response to treatment with a compound described herein. A549 culture medium is prepared with RPMI-1640 and 10% heat-inactivated FBS. LS123 culture medium is prepared with RPMI-1640 and 10% heat-inactivated FBS. A CellTiter-Glo (CTG) luminescent based assay (Promega) is used to assess growth of the cells, as a measurement of the ability of the compounds herein to inhibit Ras signaling in the cells. The cells (e.g., 800 per well) are seeded in their respective culture medium in standard tissue culture-treated 384-well format plates (Falcon #08-772-116) or ultra-low attachment surface 384-well format plates (S-Bio #MS-9384WZ). The day after plating, cells are treated with a dilution series (e.g., a 10 point 3-fold dilution series) of the compounds herein (e.g., approximately 40 μl final volume per well). Cell viability can be monitored (e.g., approximately 6 days later) according to the manufacturer's recommended instructions, where CellTiter-Glo reagent is added (e.g., approximately 10 μl), vigorously mixed, covered, and placed on a plate shaker (e.g., approximately for 20 min) to ensure sufficient cell lysis prior to assessment of luminescent signal. The IC50 values are determined using the four parameter fit. The resulting IC50 value is a measurement of the ability of the test compound to reduce cell growth of Ras-driven cells (e.g., tumor cell lines) in vitro and/or in vivo.

SMILES | IC50 (≤500 nM) [nM] | IC50 (500 nM to 5 μM (mixed units)) [nM]
C[C@H]1CC[C@]2(CN(C(=O)n3cnc(F)n3)[C@@H]2C2(C)CC2)CN1c1nc(OC[C@]23CCCN2CC(=C(F)F)C3)nc2c(F)c(-c3ccc(F)c4sc(N)c(C#N)c34)c(Cl)cc12 [Compound 223, 2-amino-4-(6-chloro-2-(((R)-2-(difluoromethylene)tetrahydro-1H-pyrrolizin-7a(5H)-yl)methoxy)-8-fluoro-4-((1R,4R,7S)-2-(3-fluoro-1H-1,2,4-triazole-1-carbonyl)-7-methyl-1-(1-methylcyclopropyl)-2,6-diazaspiro[3.5]nonan-6-yl)quinazolin-7-yl)-7-fluorobenzo[b]thiophene-3-carbonitrile] | ≤ 500 | 
C[C@H]1CC[C@]2(CN(C(=O)n3cnc(C(F)F)n3)[C@@H]2C2(C)CC2)CN1c1nc(OC[C@@]23CCCN2C[C@H](F)C3)nc2c(F)c(-c3ccc(F)c4sc(N)c(C#N)c34)c(Cl)cc12 (atropisomer, axis not shown; (aS)) [Compound 178, (R)-2-amino-4-(6-chloro-4-((1R,4R,7S)-2-(3-(difluoromethyl)-1H-1,2,4-triazole-1-carbonyl)-7-methyl-1-(1-methylcyclopropyl)-2,6-diazaspiro[3.5]nonan-6-yl)-8-fluoro-2-(((2R,7aS)-2-fluorotetrahydro-1H-pyrrolizin-7a (5H)-yl)methoxy)quinazolin-7-yl)-7-fluorobenzo[b]thiophene-3-carbonitrile] | ≤ 500 | 
CC(C)[C@H]1N(C(=O)n2cnc(Cl)n2)C[C@]12CC[C@H](C)N(c1nc(OC[C@@]34CCCN3C[C@H](F)C4)nc3c(F)c(-c4ccc(F)c5sc(N)c(C#N)c45)c(Cl)cc13)C2 [Compound 192, 2-amino-4-(6-chloro-4-((1R,4R,7S)-2-(3-chloro-1H-1,2,4-triazole-1-carbonyl)-1-isopropyl-7-methyl-2,6-diazaspiro[3.5]nonan-6-yl)-8-fluoro-2-(((2R,7aS)-2-fluorotetrahydro-1H-pyrrolizin-7a(5H)-yl)methoxy)quinazolin-7-yl)-7-fluorobenzo[b]thiophene-3-carbonitrile] | ≤ 500 | 
CC(C)C1N(C(=O)n2cnc(Cl)n2)CC12CCCN(c1nc(OC[C@@]34CCCN3C[C@H](F)C4)nc3c(F)c(-c4ccc(F)c5sc(N)c(C#N)c45)c(Cl)cc13)C2 (stereo partly drawn) [Compound 175, 2-amino-4-(6-chloro-4-(2-(3-chloro-1H-1,2,4-triazole-1-carbonyl)-1-isopropyl-2,6-diazaspiro[3.5]nonan-6-yl)-8-fluoro-2-(((2R,7aS)-2-fluorotetrahydro-1H-pyrrolizin-7a(5H)-yl)methoxy)quinazolin-7-yl)-7-fluorobenzo[b]thiophene-3-carbonitrile] | ≤ 500 | 
CN(CC1(C)CCN1C(=O)n1cnc(Cl)n1)c1nc(OC[C@@]23CCCN2C[C@H](F)C3)nc2c(F)c(-c3ccc(F)c4sc(N)c(C#N)c34)c(Cl)cc12 (single isomer, unassigned) [Compound 183] |  | 500 to 5000
CC(C)[C@H]1N(C(=O)n2cnc(C(F)(F)F)n2)C[C@@]12CN(c1nc(OC[C@@]34CCCN3C[C@H](F)C4)nc3c(F)c(-c4ccc(F)c5sc(N)c(C#N)c45)c(Cl)cc13)CCO2 [Compound 160, 2-amino-4-(6-chloro-8-fluoro-2-(((2R,7aS)-2-fluorotetrahydro-1H-pyrrolizin-7a(5H)-yl)methoxy)-4-((1R,4S)-1-isopropyl-2-(3-(trifluoromethyl)-1H-1,2,4-triazole-1-carbonyl)-5-oxa-2,8-diazaspiro[3.5]nonan-8-yl)quinazolin-7-yl)-7-fluorobenzo[b]thiophene-3-carbonitrile] | ≤ 500 | 
CCN(C(=O)n1cnc(Cl)n1)C1CCN(c2nc(OC[C@@]34CCCN3C[C@H](F)C4)nc3c(F)c(-c4ccc(F)c5sc(N)c(C#N)c45)c(Cl)cc23)C1C (stereo partly drawn) [Compound 149, N-(1-(7-(2-amino-3-cyano-7-fluorobenzo[b]thiophen-4-yl)-6-chloro-8-fluoro-2-(((2R,7aS)-2-fluorotetrahydro-1H-pyrrolizin-7a(5H)-yl)methoxy)quinazolin-4-yl)-2-methylpyrrolidin-3-yl)-3-chloro-N-ethyl-1H-1,2,4-triazole-1-carboxamide] |  | 500 to 5000
CC(C)[C@H]1N(C(=O)n2cnc(Cl)n2)C[C@@]1(C)CN(C)c1nc(OC[C@@]23CCCN2C[C@H](F)C3)nc2c(F)c(-c3ccc(F)c4sc(N)c(C#N)c34)c(Cl)cc12 [Compound 210, 2-amino-4-(6-chloro-4-((((2R,3R)-1-(3-chloro-1H-1,2,4-triazole-1-carbonyl)-2-isopropyl-3-methylazetidin-3-yl)methyl)(methyl)amino)-8-fluoro-2-(((2R,7aS)-2-fluorotetrahydro-1H-pyrrolizin-7a(5H)-yl)methoxy)quinazolin-7-yl)-7-fluorobenzo[b]thiophene-3-carbonitrile] | ≤ 500 | 
C[C@@H]1[C@H](N(C)C(=O)n2cnc(F)n2)CCN1c1nc(OC[C@@]23CCCN2C[C@H](F)C3)nc2c(F)c(-c3ccc(F)c4sc(N)c(C#N)c34)c(Cl)cc12 [Compound 111, N-((2R,3R)-1-(7-(2-amino-3-cyano-7-fluorobenzo[b]thiophen-4-yl)-6-chloro-8-fluoro-2-(((2R,7aS)-2-fluorotetrahydro-1H-pyrrolizin-7a(5H)-yl)methoxy)quinazolin-4-yl)-2-methylpyrrolidin-3-yl)-3-fluoro-N-methyl-1H-1,2,4-triazole-1-carboxamide] | ≤ 500 | 
CC1C(N(C)C(=O)n2cncn2)CCN1c1nc(OC[C@@]23CCCN2C[C@H](F)C3)nc2c(F)c(-c3ccc(F)c4sc(N)c(C#N)c34)c(Cl)cc12 (stereo partly drawn) [Compound 125, N-(1-(7-(2-amino-3-cyano-7-fluorobenzo[b]thiophen-4-yl)-6-chloro-8-fluoro-2-(((2R,7aS)-2-fluorotetrahydro-1H-pyrrolizin-7a(5H)-yl)methoxy)quinazolin-4-yl)-2-methylpyrrolidin-3-yl)-N-methyl-1H-1,2,4-triazole-1-carboxamide] | ≤ 500 | 
CCC1N(C(=O)n2cncn2)CC12CN(c1nc(OC[C@@]34CCCN3C[C@H](F)C4)nc3c(F)c(-c4ccc(F)c5sc(N)c(C#N)c45)c(Cl)cc13)CCO2 (stereo partly drawn) [Compound 112, 2-amino-4-(6-chloro-4-(1-ethyl-2-(1H-1,2,4-triazole-1-carbonyl)-5-oxa-2,8-diazaspiro[3.5]nonan-8-yl)-8-fluoro-2-(((2R,7aS)-2-fluorotetrahydro-1H-pyrrolizin-7a(5H)-yl)methoxy)quinazolin-7-yl)-7-fluorobenzo[b]thiophene-3-carbonitrile] | ≤ 500 | 
CC(C)[C@H]1N(C(=O)n2cnc(F)n2)C[C@]12CC[C@H](C)N(c1nc(OC[C@@]34CCCN3C[C@H](F)C4)nc3c(F)c(-c4ccc(F)c5sc(N)c(C#N)c45)c(Cl)cc13)C2 [Compound 213, 2-amino-4-(6-chloro-8-fluoro-4-((1R,4R,7S)-2-(3-fluoro-1H-1,2,4-triazole-1-carbonyl)-1-isopropyl-7-methyl-2,6-diazaspiro[3.5]nonan-6-yl)-2-(((2R,7aS)-2-fluorotetrahydro-1H-pyrrolizin-7a(5H)-yl)methoxy)quinazolin-7-yl)-7-fluorobenzo[b]thiophene-3-carbonitrile] | ≤ 500 | 
C[C@H]1CC[C@]2(CN(C(=O)n3cnc(F)n3)[C@@H]2C2(C(F)F)CC2)CN1c1nc(OC[C@@]23CCCN2C[C@H](F)C3)nc2c(F)c(-c3ccc(F)c4sc(N)c(C#N)c34)c(Cl)cc12 (atropisomer, axis not shown; (aS)) [Compound 194, (R)-2-amino-4-(6-chloro-4-((1S,4R,7S)-1-(1-(difluoromethyl)cyclopropyl)-2-(3-fluoro-1H-1,2,4-triazole-1-carbonyl)-7-methyl-2,6-diazaspiro[3.5]nonan-6-yl)-8-fluoro-2-(((2R,7aS)-2-fluorotetrahydro-1H-pyrrolizin-7a(5H)-yl)methoxy)quinazolin-7-yl)-7-fluorobenzo[b]thiophene-3-carbonitrile] | ≤ 500 | 
COCC1([C@@H]2[C@H](CN(C)c3nc(OC[C@@]45CCCN4C[C@H](F)C5)nc4c(F)c(-c5ccc(F)c6sc(N)c(C#N)c56)c(Cl)cc34)CN2C(=O)n2cnc(F)n2)CC1 [Compound 120, 2-amino-4-(6-chloro-8-fluoro-4-((((2S,3R)-1-(3-fluoro-1H-1,2,4-triazole-1-carbonyl)-2-(1-(methoxymethyl)cyclopropyl)azetidin-3-yl)methyl)(methyl)amino)-2-(((2R,7aS)-2-fluorotetrahydro-1H-pyrrolizin-7a(5H)-yl)methoxy)quinazolin-7-yl)-7-fluorobenzo[b]thiophene-3-carbonitrile] | ≤ 500 | 
CC(C)[C@H]1N(C(=O)n2cnc(Cl)n2)C[C@]12CC[C@@H](C)N(c1nc(OC[C@@]34CCCN3C[C@H](F)C4)nc3c(F)c(-c4ccc(F)c5sc(N)c(C#N)c45)c(Cl)cc13)C2 [Compound 153, 2-amino-4-(6-chloro-4-((1R,4R,7R)-2-(3-chloro-1H-1,2,4-triazole-1-carbonyl)-1-isopropyl-7-methyl-2,6-diazaspiro[3.5]nonan-6-yl)-8-fluoro-2-(((2R,7aS)-2-fluorotetrahydro-1H-pyrrolizin-7a(5H)-yl)methoxy)quinazolin-7-yl)-7-fluorobenzo[b]thiophene-3-carbonitrile] |  | 500 to 5000
